Experimental data as given in patent publication US10336701B2, “Pyridin-2-one derivatives of formula (II) useful as EP3 receptor antagonists” (Janssen Pharmaceutica NV, priority 2017, dated 2019).

What was measured:
EP3 receptor [1] = target: T1, EP3 receptor (Homo sapiens, UniProt P43115); test: CHO cell cAMP assay (forskolin and sulprostone stimulated, HTRF); format: cell-based; settings: CHO cells; sulprostone 700 nM (EC80) and FSK 2 μM (EC70), 37° C. for 30 minutes; read-out: CHO_cAMP IC50
T1 construct: purchased Millipore HTS092M
T1 sequence (P43115 1-390): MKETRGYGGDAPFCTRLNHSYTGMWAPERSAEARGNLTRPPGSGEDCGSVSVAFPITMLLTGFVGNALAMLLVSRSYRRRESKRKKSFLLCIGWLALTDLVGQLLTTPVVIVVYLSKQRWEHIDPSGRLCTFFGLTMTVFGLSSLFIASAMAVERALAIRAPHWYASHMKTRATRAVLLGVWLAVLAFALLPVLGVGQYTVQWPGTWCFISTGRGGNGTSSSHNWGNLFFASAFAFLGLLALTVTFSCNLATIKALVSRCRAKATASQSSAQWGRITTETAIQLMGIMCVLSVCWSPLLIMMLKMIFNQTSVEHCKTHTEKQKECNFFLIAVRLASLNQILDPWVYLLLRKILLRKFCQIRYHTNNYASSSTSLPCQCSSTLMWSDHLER

EP3 receptor [2] = target: T1, EP3 receptor; test: [3H]-PGE2 binding assay (EP3 competition binding); settings: read-out: [3H]-PGE2 Binding Ki
Outline: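 Scintillation-bead competition binding with EP3 membranes (2 μg/well), 2 nM [3H]-PGE2, 0.1% DMSO, in 50 mM Tris, 10 mM MgCl2, 1 mM EDTA, pH 7.4.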

| Compound | IC50 (EP3 receptor [1]) | Ki (EP3 receptor [2]) |
| --- | --- | --- |
| CC(C)C(CC(=O)NS(C)(=O)=O)c1ccc(-c2ccc3ccccc3c2)[nH]c1=O (stereo not drawn) [compound 250, 4-methyl-N-(methylsulfonyl)-3-(6-(naphthalen-2-yl)-2-oxo-1,2-dihydropyridin-3-yl)pentanamide] | 931 nM | 69 nM |
| CCn1ncc2c(F)cc(-c3ccc(C(Cc4noc(=O)[nH]4)C(C)C)c(=O)[nH]3)cc21 (stereo not drawn) [Compound #99, 3-(2-(6-(1-ethyl-4-fluoro-1H-indazol-6-yl)-2-oxo-1,2-dihydropyridin-3-yl)-3-methylbutyl)-1,2,4-oxadiazol-5(4H)-one] | 4880 nM | 921 nM |
| CCC(/C=C1/OC(=O)NC1=O)(CC)c1ccc(-c2ccc3c(c2)OC(C)(C)C=C3)[nH]c1=O [compound 28, 5-(2-(6-(2,2-dimethyl-2H-chromen-7-yl)-2-oxo-1,2-dihydropyridin-3-yl)-2-ethylbutylidene)oxazolidine-2,4-dione] | > 20000 nM | 5620 nM |
| CC(C)C(C)(C(N)=O)c1ccc(-c2ccc3ccccc3c2)[nH]c1=O (stereo not drawn) [compound 232, 2,3-dimethyl-2-(6-(naphthalen-2-yl)-2-oxo-1,2-dihydropyridin-3-yl)butanamide] | 1630 nM | 125 nM |
| CC(C)C(F)(C(=O)NS(=O)(=O)c1cc(F)cc(F)c1)c1ccc(-c2ccc3cccc(F)c3c2)[nH]c1=O (stereo not drawn) [compound 173, N-((3,5-difluorophenyl)sulfonyl)-2-fluoro-2-(6-(8-fluoronaphthalen-2-yl)-2-oxo-1,2-dihydropyridin-3-yl)-3-methylbutanamide] | 1300 nM | 153 nM |
| CC(C)S(=O)(=O)N1CCC(c2ccc(-c3ccc4cc(F)ccc4c3)[nH]c2=O)CC1 [compound 199, 6-(6-fluoronaphthalen-2-yl)-3-(1-(isopropylsulfonyl)piperidin-4-yl)pyridin-2(1H)-one] | > 20000 nM | > 10000 nM |
| O=c1[nH]c(-c2ccc3ccccc3c2)ccc1C1CCc2oncc2C1 (stereo not drawn) [compound 187, 6-(naphthalen-2-yl)-3-(4,5,6,7-tetrahydrobenzo[d]isoxazol-5-yl)pyridin-2(1H)-one] | > 20000 nM | > 10000 nM |
| CC(C)C(/C=C1\OC(=O)NC1=O)c1ccc(-c2cc(F)c3cnn(C(C)C)c3c2)[nH]c1=O (stereo not drawn) [compound 122, (Z)-5-(2-(6-(4-fluoro-1-isopropyl-1H-indazol-6-yl)-2-oxo-1,2-dihydropyridin-3-yl)-3-methylbutylidene)oxazolidine-2,4-dione] | 278 nM | 32 nM |
| CC(C)C(O)(C(N)=O)c1ccc(-c2ccc3c(c2)OCCN3C)[nH]c1=O (stereo not drawn) [compound 225, 2-hydroxy-3-methyl-2-(6-(4-methyl-3,4-dihydro-2H-benzo[b][1,4]oxazin-7-yl)-2-oxo-1,2-dihydropyridin-3-yl)butanamide] | 4570 nM | 343 nM |
| CC(C)C(NC(=O)NCCN(C)C)c1ccc(-c2ccc3cccc(F)c3c2)[nH]c1=O (stereo not drawn) [compound 266, 1-(2-(dimethylamino)ethyl)-3-(1-(6-(8-fluoronaphthalen-2-yl)-2-oxo-1,2-dihydropyridin-3-yl)-2-methylpropyl)urea] | 736 nM | 28 nM |
| CC1(c2ccc(-c3ccc4ccccc4c3)[nH]c2=O)CNS(=O)(=O)N1 (stereo not drawn) [compound 282, 3-(3-methyl-1,1-dioxido-1,2,5-thiadiazolidin-3-yl)-6-(naphthalen-2-yl)pyridin-2(1H)-one] | 900 nM | 740 nM |
| CCn1cc2c(C)cc(-c3ccc(C(/C=C4\OC(=O)NC4=O)C(C)C)c(=O)[nH]3)cc2n1 (stereo not drawn) [compound 98, (Z)-5-(2-(6-(2-ethyl-4-methyl-2H-indazol-6-yl)-2-oxo-1,2-dihydropyridin-3-yl)-3-methylbutylidene)oxazolidine-2,4-dione] | > 20000 nM | > 10000 nM |
| CC(C)C(Cc1cc(Cl)c(-c2ccc3cccc(F)c3c2)[nH]c1=O)c1noc(=O)[nH]1 (stereo not drawn) [Compound #272, 3-(1-(5-chloro-6-(8-fluoronaphthalen-2-yl)-2-oxo-1,2-dihydropyridin-3-yl)-3-methylbutan-2-yl)-1,2,4-oxadiazol-5(4H)-one] | > 20000 nM | > 10000 nM |
| CC(C)C(c1nnn[nH]1)c1ccc(-c2ccc3ccccc3c2)[nH]c1=O (stereo not drawn) [compound 61, 3-(2-Methyl-1-(1H-tetrazol-5-yl)propyl)-6-(naphthalen-2-yl)pyridin-2(1H)-one] | 376 nM | 43 nM |
| CCn1cnc2c(F)c(-c3ccc(C(C=C4OC(=O)NC4=O)C(C)C)c(=O)[nH]3)ccc21 (stereo not drawn) [compound 90, 5-(2-(6-(1-ethyl-4-fluoro-1H-benzo[d]imidazol-5-yl)-2-oxo-1,2-dihydropyridin-3-yl)-3-methylbutyli-dene)oxazolidine-2,4-dione] | 5430 nM | 633 nM |
| NC(=O)C1(c2ccc(-c3ccc4ccccc4c3)[nH]c2=O)CCCC1 [compound 219, 1-(6-(naphthalen-2-yl)-2-oxo-2,3-dihydropyridin-3-yl)cyclopentanecarboxamide] | 4070 nM | 108 nM |
| CC(C)C(C(=O)NCCOCCN(C)C)c1ccc(-c2ccc3cccc(F)c3c2)[nH]c1=O (stereo not drawn) [compound 233, N-(2-(2-(dimethylamino)ethoxy)ethyl)-2-(6-(8-fluoronaphthalen-2-yl)-2-oxo-1,2-dihydropyridin-3-yl)-3-methylbutanamide] | 325 nM | 15 nM |
| CC1(c2ccc(-c3ccc4ccccc4c3)[nH]c2=O)CNC(=S)N1 (stereo not drawn) [compound 286, 4-[2-hydroxy-6-(naphthalen-2-yl)pyridin-3-yl]-4-methylimidazolidine-2-thione] | 179 nM | 64 nM |
| CCn1ncc2c(F)cc(-c3ccc(C(CC)(CC)c4ncc[nH]4)c(=O)[nH]3)cc21 [compound 31, 6-(1-ethyl-4-fluoro-indazol-6-yl)-3-[1-ethyl-1-(1H-imidazol-2-yl)propyl]-1H-pyridin-2-one] | 482 nM | 37 nM |
| CN(C)C1=NC(C)(c2ccc(-c3ccc4ccccc4c3)[nH]c2=O)CN1 (stereo not drawn) [compound 289, 3-[2-(dimethylamino)-4-methyl-4,5-dihydro-1H-imidazol-4-yl]-6-(naphthalen-2-yl)-1,2-dihydropyridin-2-one] | > 20000 nM | 1800 nM |

Now those with a lower IC50 (EP3 receptor [1]), led by results:

| IC50 (EP3 receptor [1]) | Ki (EP3 receptor [2]) | Compound |
| --- | --- | --- |
| 130 nM | 26 nM | CCn1ncc2c(F)cc(-c3ccc(C(C(C)C)N4CCS(=O)(=O)CC4)c(=O)[nH]3)cc21 (stereo not drawn) [Compound #168, 3-(1-(1,1-dioxidothiomorpholino)-2-methylpropyl)-6-(1-ethyl-4-fluoro-1H-indazol-6-yl)pyridin-2(1H)-one] |
| 11 nM | 6 nM | CC(C)C(/C=C1/C(=O)NC(=O)N1C)c1ccc(-c2ccc3cccc(F)c3c2)[nH]c1=O (stereo not drawn) [Compound #80, 5-(2-(6-(8-fluoronaphthalen-2-yl)-2-oxo-1,2-dihydropyridin-3-yl)-3-methylbutylidene)-1-methylimidazolidine-2,4-dione] |
| 33 nM | 22 nM | O=C1NC(=O)/C(=C/C(c2ccc(-c3ccc4cccc(F)c4c3)[nH]c2=O)C2CC2)O1 (stereo not drawn) [compound 103, (Z)-5-(2-cyclopropyl-2-(6-(8-fluoronaphthalen-2-yl)-2-oxo-1,2-dihydropyridin-3-yl)ethylidene)oxazolidine-2,4-dione] |
| 20 nM | 5 nM | O=C1NC(=O)[C@]2(CCC[C@H](c3ccc(-c4ccc5ccccc5c4)[nH]c3=O)C2)N1 (racemic) [compound 191, 7-(6-(naphthalen-2-yl)-2-oxo-1,2-dihydropyridin-3-yl)-1,3-diazaspiro[4.5]decane-2,4-dione] |
| 26 nM | 7 nM | CC(=C1OC(=O)NC1=O)C(c1ccc(-c2ccc3cccc(F)c3c2)[nH]c1=O)C(C)C (stereo not drawn) [compound 84] |
| 6 nM | 2 nM | CC(C)C1(c2ccc(-c3ccc4cccc(F)c4c3)[nH]c2=O)N=C(NC#N)NC1=O (stereo not drawn) [compound 236, N-(4-(6-(8-fluoronaphthalen-2-yl)-2-oxo-1,2-dihydropyridin-3-yl)-4-isopropyl-5-oxo-4,5-dihydro-1H-imidazol-2-yl)cyanamide] |
| 44 nM | 11 nM | CCn1ncc2c(F)cc(-c3ccc(C(CC)(CC)CC4CCNC4=O)c(=O)[nH]3)cc21 (stereo not drawn) [compound 40, 6-(1-ethyl-4-fluoro-1H-indazol-6-yl)-3-(3-((2-oxopyrrolidin-3-yl)methyl)pentan-3-yl)pyridin-2(1H)-one] |
| 7 nM | 9 nM | O=C1NC(=O)/C(=C/C(c2ccc(-c3ccc4cccc(F)c4c3)[nH]c2=O)C2CCCC2)O1 (stereo not drawn) [compound 92, (Z)-5-(2-cyclopentyl-2-(6-(8-fluoronaphthalen-2-yl)-2-oxo-1,2-dihydropyridin-3-yl)ethylidene)oxazolidine-2,4-dione] |
| 1 nM | 3 nM | CC(C)C(C(=O)NC1CCSCC1)c1ccc(-c2ccc3cccc(F)c3c2)[nH]c1=O (stereo not drawn) [compound 183, 2-(6-(8-fluoronaphthalen-2-yl)-2-oxo-1,2-dihydropyridin-3-yl)-3-methyl-N-(tetrahydro-2H-thiopyran-4-yl)butanamide] |
| 53 nM | 5 nM | CC(C)C(CC(N)=O)c1ccc(-c2ccc3ccccc3c2)[nH]c1=O (stereo not drawn) [compound 249, 4-methyl-3-(6-(naphthalen-2-yl)-2-oxo-1,2-dihydropyridin-3-yl)pentanamide] |
